Patent publication US20050019355A1, “Skin antiseptic and disinfectant” (priority 2003, published 2005)

Tested on: E. coli (ATCC 25922)
Test: Lower effective concentration of ethyl lactate, modification of AOAC Method 956.17
Type: cell-based
Conditions: 15% solution of ethyl lactate, 10 minutes exposure of E. coli
Protocol: Using a modification of AOAC Method 956.17, the lower effective concentration for ethyl lactate was tested against E. coli (ATCC 25922) at three reaction times at varying concentrations of ethyl lactate. […] [table]

CCOC(=O)C(C)O (stereo not shown) [ethyl lactate]
Bacterial growth after exposure: eliminated bacterial growth
